Source: PubChem BioAssay AID1159563 (GlaxoSmithKline (GSK), 2015)
The source made the active and inactive calls. The rule behind the calls is not given here.

The compounds below were run on HepG2 cytotoxicity (assay: human hepatoma cell viability loss – cytotoxicity control (AID 1159563)).

| Structure (SMILES) | IC50 |
| --- | --- |
| c1ccc2c(CCOc3nccnc3-c3ccncc3)c[nH]c2c1 | > 100 µM (inactive) |
| Cc1c([N+](=O)[O-])c(C(=O)Nc2sc3c(c2C#N)CCC(C)C3)nn1C (stereo not given) | > 100 µM (inactive) |
| CN1CCN(c2nc(-c3ccc(Cl)cc3)c3c(N)n(C)nc3n2)CC1 | 79 µM |
| O=C(NCCc1ccn(-c2ccccc2)n1)C1CCCCC1 | > 100 µM (inactive) |
| NC(=O)c1ncc(N[C@@H]2CCCNC2)nc1Nc1cccc(Cl)c1 | 10 µM |
| O=C1NCc2cccc(Nc3nc(NC4CCC(O)CC4)ncc3Br)c21 (stereo not given) | > 100 µM (inactive) |
| O=c1oc2ccccc2n1C1CCN(Cc2ccccc2-c2cccnc2)CC1 | > 100 µM (inactive) |
| Cc1nc(-c2ccc3c(c2)OCO3)sc1C(=O)NCc1ccc2c(c1)OCO2 | > 100 µM (inactive) |
| O=C(c1cccc(Cl)c1Cl)N1CCn2c1nc(-c1ccncc1)cc2=O | > 100 µM (inactive) |
| CC(=O)Nc1ccc(CN2CCC(N3CC(c4ccccc4)(c4ccccc4)OCC3=O)CC2)cc1 | 79 µM |
| CNC(=O)Oc1ccc(C(=O)NCc2ccccc2)cc1OC(=O)NC | > 100 µM (inactive) |
| O=C(NCCc1ccccc1Cl)c1cccn1-c1cccnc1 | > 100 µM (inactive) |
| CN(C)S(=O)(=O)c1cccc(CSc2nnc(-c3ccc4c(c3)OCO4)o2)c1 | > 100 µM (inactive) |
| O=C(Nc1cccc(F)c1)N1CCC(Oc2cccc(-c3cccnc3)c2)CC1 | > 100 µM (inactive) |
| O=C(NCC1CCCCC1)c1cnns1 | 40 µM |
| Clc1ccc(OCCN2CCCCC2c2cccnc2)c(Cl)c1 (stereo not given) | 79 µM |
| CC(=O)Nc1ccc(-c2noc(CC3CCCN(Cc4cccc(F)c4C)C3)n2)cc1 (stereo not given) | > 100 µM (inactive) |
| Cc1c(C#N)c([N+](=O)[O-])nn1Cc1cccc(Cl)c1Cl | 79 µM |
| CC(C)S(=O)(=O)c1ccc(-c2cnc(N)c3cc(-c4ccnc(N)n4)ccc23)cc1 | 16 µM |
| COCc1cnc2c(c1SCc1c(F)cccc1Cl)c(=O)n(C)c(=O)n2C | > 100 µM (inactive) |
| O=C(O)[C@H]1C[C@@H]1c1ccc(-c2ccc(CN(CCc3ccccn3)C(=O)C3CCC3)cc2)cc1 | > 100 µM (inactive) |
| COc1ccc(-c2cc(C)no2)cc1S(=O)(=O)Nc1ccc(F)c(Cl)c1 | 79 µM |
| N#Cc1cccc(CN2CCC(N(Cc3cccnc3)C(=O)c3cc(F)c(F)cc3F)CC2)c1 | > 100 µM (inactive) |
| CN(Cc1nc2ccccc2s1)C(=O)C=Cc1cc2ccccc2o1 | > 100 µM (inactive) |
| CNC(=O)C1Cc2ccccc2N1C(=O)Cc1ccccc1 (stereo not given) | > 100 µM (inactive) |

| Structure (SMILES) | IC50 |
| --- | --- |
| CC(C)(C)c1cc(NC2CC2)nc(-c2ccccn2)n1 | > 100 µM (inactive) |
| CS(=O)(=O)c1ccccc1C(=O)N(Cc1ccccc1)c1ccccc1 | > 100 µM (inactive) |
| O=C(NNC(=O)c1ccccn1)c1ccc(-c2ccccc2)cc1 | > 100 µM (inactive) |
| COCc1cc(Nc2ccccc2)nc(-c2ccccn2)n1 | 100 µM |
| c1ccc(Nc2nc3ccccc3[nH]2)nc1 | 79 µM |
| CC(Cn1ccnc1)NC(=O)C=Cc1ccc(Cl)cc1 (stereo not given) | > 100 µM (inactive) |
| O=C(NCC1CCCCC1)c1cc(=O)c2ccccc2o1 | 25 µM |
| CCN(CC)S(=O)(=O)c1ccc(C(=O)Nc2cc(C)nn2-c2nc(C)c(C)c(=O)[nH]2)cc1 | > 100 µM (inactive) |
| Cc1cccc(Nc2nc(-c3ccccn3)cs2)n1 | 40 µM |
| Cc1ccc2c(c1)-c1onc(C(=O)N3CCCCC3c3cccnc3)c1CO2 (stereo not given) | 50 µM |
| COc1ccc(-c2nc3ncccc3o2)cc1NC(=O)c1cccs1 | > 100 µM (inactive) |
| Nc1nc(-c2ccccn2)nc(-n2nc(-c3cccc(C(F)(F)F)c3)cc2N)n1 | 20 µM |
| COc1cccc(CN(C)Cc2nc(N)c3c(C)c(C)sc3n2)c1 | 40 µM |
| Cc1cc(NC(=O)C2CCCCC2)n(-c2nc3c(c(=O)[nH]2)CCC3)n1 | 50 µM |
| COc1ccc2nccc(NC(=O)C3(OC)CCN(CC(O)c4ccc5c(c4)OCCO5)CC3)c2n1 (stereo not given) | 40 µM |
| OCC1CCCCN1c1cc(-c2ccccn2)nc(Nc2ccccc2)n1 (stereo not given) | 32 µM |
| O=C(NCc1ccncc1)c1ccccc1N1CCCN(C(=O)Cc2ccc(F)c(F)c2)CC1 | > 100 µM (inactive) |
| O=C(c1ccc(Cl)cc1)c1ccc(OC(=O)N2CCOCC2)cc1 | > 100 µM (inactive) |
| O=c1cc(NCCCNC2CCOc3c(I)cc(Cl)cc32)[nH]c2ccccc12 (stereo not given) | 63 µM |
| Cc1ccccc1NS(=O)(=O)c1ccc2[nH]cc(C(=O)NC3CCCC(C)C3C)c(=O)c2c1 (stereo not given) | 40 µM |
| CCC(c1ccc(F)cc1)n1cncc1-c1cnn(C)c1 (stereo not given) | > 100 µM (inactive) |
| CC(C(=O)Nc1ccc(Br)cc1)N1CCN(c2ccc([N+](=O)[O-])cc2)CC1 (stereo not given) | > 100 µM (inactive) |
| CN(Cc1nc2ccc(C(=O)NCC3CCCCC3)cc2[nH]1)C1CCCc2cccnc21 (stereo not given) | 16 µM |
| Cc1ncsc1CNc1cnc(-c2ccc3c(c2)OCCO3)c(-c2cnn(C)c2)c1 | > 100 µM (inactive) |
| N#Cc1cccc(CNc2ccc(-c3cnn(CC4CC4)c(=O)c3C#N)cc2)c1 | > 100 µM (inactive) |
